According to ChEMBL document CHEMBL1137164, “Antioxidative activities of novel diphenylalkyl piperazine derivatives with high affinities for the dopamine transporter” (Bioorg Med Chem Lett, 2004):

Species: Canis familiaris
Assay: inhibitory concentration against auto-oxidative lipid peroxidation in canine brain homogenate

Row | Structure (SMILES) | IC50
1 | Cc1ccc(NCC(O)CN2CCN(CCCC(c3ccc(F)cc3)c3ccc(F)cc3)CC2)cc1 (stereo unspecified) | 6.1 µM
2 | CN(C)c1ccc(NCC(O)CN2CCN(CCCC(c3ccc(F)cc3)c3ccc(F)cc3)CC2)cc1 (stereo unspecified) | 2.2 µM
3 | OC(CNc1ccc(Cl)cc1)CN1CCN(CCCC(c2ccc(F)cc2)c2ccc(F)cc2)CC1 (stereo unspecified) | 8.5 µM
4 | OC(CNc1ccccc1)CN1CCN(C(c2ccc(F)cc2)c2ccc(F)cc2)CC1 (stereo unspecified) | 6.9 µM
5 | CC(C)(C)c1cc(NCC(O)CN2CCN(CCCC(c3ccc(F)cc3)c3ccc(F)cc3)CC2)cc(C(C)(C)C)c1O (stereo unspecified) | 2.8 µM
6 | COc1ccc(NCC(O)CN2CCN(CCCC(c3ccc(F)cc3)c3ccc(F)cc3)CC2)cc1 (stereo unspecified) | 1.6 µM
7 | O=[N+]([O-])c1ccc(NCC(O)CN2CCN(CCCC(c3ccc(F)cc3)c3ccc(F)cc3)CC2)cc1 (stereo unspecified) | 182 µM
8 | Nc1ccc(NCC(O)CN2CCN(CCCC(c3ccc(F)cc3)c3ccc(F)cc3)CC2)cc1 (stereo unspecified) | 2.7 µM
9 | OC(CNc1ccc(Cl)c(Cl)c1)CN1CCN(CCCC(c2ccc(F)cc2)c2ccc(F)cc2)CC1 (stereo unspecified) | 23 µM
10 | Cc1c(C)c2c(c(C)c1O)CC[C@@](C)(CCC[C@H](C)CCC[C@H](C)CCCC(C)C)O2 [ALPHA-TOCOPHEROL] | 1.5 µM
11 | OC(CNc1ccccc1)CN1CCN(CCC(c2ccc(F)cc2)c2ccc(F)cc2)CC1 (stereo unspecified) | 11 µM
12 | COc1cc(NCC(O)CN2CCN(CCCC(c3ccc(F)cc3)c3ccc(F)cc3)CC2)cc(OC)c1OC (stereo unspecified) | 1.4 µM
13 | OC(CNc1ccccc1)CN1CCN(CCCC(c2ccc(F)cc2)c2ccc(F)cc2)CC1 (stereo unspecified) | 6.5 µM
14 | OC(CNc1ccccc1)CN1CCN(CC(c2ccc(F)cc2)c2ccc(F)cc2)CC1 (stereo unspecified) | 11 µM
15 | Oc1ccc(NCC(O)CN2CCN(CCCC(c3ccc(F)cc3)c3ccc(F)cc3)CC2)cc1 (stereo unspecified) | 0.32 µM
16 | OC(CNc1ccccc1)CN1CCN(CCCCC(c2ccc(F)cc2)c2ccc(F)cc2)CC1 (stereo unspecified) | 8.3 µM
